Data reported in patent US11542492B2 (Celgene CAR LLC, priority 2009, dated 2023).
pIC50: −log10 of the molar value.

Legend:
PDPK1 [1] = molecular target: T1, PDPK1 (Homo sapiens, UniProt O15530); experiment: MALDI MS of intact PDPK1 incubated with compound; assay type: binding; parameters: purchased Millipore 14-452; settings: for mass shift of PDPK1: 10-fold excess of compound to protein; for Number of Modifications on Whole Protein: PDPK1 whole protein, MS
T1 sequence (O15530 1-556): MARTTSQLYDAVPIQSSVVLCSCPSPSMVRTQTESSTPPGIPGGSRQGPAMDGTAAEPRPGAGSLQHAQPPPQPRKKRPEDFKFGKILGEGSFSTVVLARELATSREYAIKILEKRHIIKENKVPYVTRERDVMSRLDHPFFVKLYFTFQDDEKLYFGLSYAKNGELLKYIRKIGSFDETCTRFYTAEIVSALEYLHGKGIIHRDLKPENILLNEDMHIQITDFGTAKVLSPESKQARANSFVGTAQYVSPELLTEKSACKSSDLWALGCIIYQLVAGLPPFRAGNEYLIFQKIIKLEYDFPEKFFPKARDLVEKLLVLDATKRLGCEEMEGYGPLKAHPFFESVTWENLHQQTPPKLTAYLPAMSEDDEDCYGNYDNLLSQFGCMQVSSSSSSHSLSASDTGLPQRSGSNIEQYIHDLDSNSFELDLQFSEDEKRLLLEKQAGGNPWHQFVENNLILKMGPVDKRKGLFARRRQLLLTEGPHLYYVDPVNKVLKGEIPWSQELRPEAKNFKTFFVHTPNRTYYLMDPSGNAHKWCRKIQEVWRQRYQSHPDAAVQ
Experimental: (§1) Intact PDPK1 was incubated for 3 hr at a 10-fold excess of compound XI-27 to protein. 3 μL aliquots of the samples were diluted with 10 μL of 0.1% TFA prior to micro C4 Ziptipping directly onto the MALDI target plate using sinapinic acid as the desorption matrix (10 mg/mL in 0.1% TFA:Acetonitrile 50:50).
as §1, with “XI-21” for “XI-27”
For example, Table 7 lists non-limiting examples of compounds that modify PDPK1 whole protein, the number of modifications per protein and the lysines modified within the protein. […] Also, the lysine modified in PDPK-1 by XI-27, XI-26, XI-22, and XI-21 are not the same for each compound. Without wishing to be bound to any particular theory, the position of the warhead, as presented by the scaffold and tether to the lysines in the binding site, effects different results on the modification of the different lysines in the binding site of PDPK-1.

PDPK1 [2] = molecular target: T1, PDPK1; experiment: PDK1-OMNIA kinase assay (ST28-Sox peptide); assay type: biochemical; parameters: purchased Invitrogen, BPS or SignalChem P3001 (Invitrogen), 40080 (BPS), P14-10H (SignalChem); settings: PDPK1 enzyme pre-incubated 30 min at 25° C. with compound; [ATP]=5 μM; ST28-Sox peptide substrate; read-out: Inhibition/Modification Designation (IC50, PDK1-OMNIA)
Experimental: Briefly, a 10× stock of PDPK1 enzyme from Invitrogen (P3001) or BPS (40080) or SignalChem (P14-10H), 1.13×ATP (AS001A) and ST28-Sox peptide substrate (KNZ1281C) were prepared in 1× kinase reaction buffer consisting of 20 mM Tris, pH 7.5, 5 mM MgCl2, 1 mM EGTA, 5 mM β-glycerophosphate, 5% glycerol (10× stock, KB002A) and 0.2 mM DTT (DS001A). 5 μL of enzyme were pre-incubated in a Corning (#3574) 384-well, white, non-binding surface microtiter plate (Corning, N.Y.) for 30 min at 25° C. with a 0.5 μL volume of 50% DMSO and serially diluted compounds prepared in 50% DMSO. Kinase reactions were started with the addition of 45 […] of the ST28-Sox peptide substrate and monitored every 71 seconds for 30-60 minutes at λex360/λem485 in a Synergy4 plate reader from BioTek (Winooski, Vt.). At the conclusion of each assay, progress curves from each well were examined for linear reaction kinetics and fit statistics (R^2, 95% confidence interval, absolute sum of squares). Post-lag velocity (+10 minutes to 20+ minutes) from each reaction was estimated from the slope of a plot of relative fluorescence units vs time (minutes) and normalized to the no enzyme and no inhibitor control groups for % Inhibition. The resulting inhibition values were then plotted against inhibitor concentration to estimate IC50 from log [Inhibitor] vs Response, Variable Slope model in GraphPad Prism from GraphPad Software (San Diego, Calif.).
[Reagent] used in provisional protocol(s): Invitrogen—[PDPK1]=5-10 nM, [ATP]=5 μM and [ST28-Sox]=5 μM or 10 μM (ATP KMapp=4-6 μM); BPS—[PDPK1]=10-15 nM, [ATP]=5 μM and [ST28-Sox]=10 μM (ATP KMapp=3-5 μM); SignalChem—[PDPK1]=5-10 nM, [ATP]=5 μM and [ST28-Sox]=5 μM or 10 μM (ATP KMapp ND)

HCV NS3 protease WT 1b = molecular target: T2, HCV NS3 protease WT 1b (Hepatitis C virus genotype 1b, UniProt P26663); experiment: MALDI MS of intact HCV protease 1b WT incubated with compound; assay type: binding; settings: WT 1b, 1 HR
T2 construct: The single-chain proteolytic domain (NS4A21-32-GSGS-NS33-631) was cloned into pET-14b; His tag (own knowledge of vector pET-14b); made in house; host or cells: Escherichia coli BL21
Experimental: Intact HCV (protease) 1bWT was incubated for 1 hr at a 10× fold excess of XVI-26 to protein. 3 ul aliquots of the samples were diluted with 10 ul of 0.1% TFA prior to micro C4 ZipTipping directly onto the MALDI target using Sinapinic acid as the desorption matrix (10 mg/mL in 0.1% TFA:Acetonitrile 50:50). […] Due to likely protein misfolding during protein purification, a small portion of the misfolded protein was not modified.
In order to determine whether the modification of the protein occurred at lysine, the pH from the above experiment was increased from 7.4 to 10.0. Because the compound lysine adduct would be an amide any increase in pH would have minimal effect on the modified protein. If however, the modification occurred at cysteine the resultant thioester bond would be unstable and the compound would hydrolyze off the protein.
Intact HCV (protease) 1bWT, C159S, and C159S/K136A were incubated for 1 hr at a 10× fold excess of XVI-26 to protein. 3 μl aliquots of the samples were diluted with 10 μl of 0.1% TFA prior to micro C4 ZipTipping directly onto the MALDI target using Sinapinic acid as the desorption matrix (10 mg/mL in 0.1% TFA:Acetonitrile 50:50).
Intact HCV (protease) WT1b was incubated for 1 hr at a 10× fold excess of XVI-1 (mw=782.87) to protein. 3 μl aliquots of the samples were diluted with 10 μl of 0.1% TFA prior to micro C4 ZipTipping directly onto the MALDI target using Sinapinic acid as the desorption matrix (10 mg/mL in 0.1% TFA:Acetonitrile 50:50). […] Due to some protein misfolding during the purification of the protein, the unfolded portion of the protein can not react with XVI-1.

[3] = molecular target: T3, HCV NS3/4A 1b protease enzyme (wild type) (Hepatitis C virus genotype 1b, UniProt P26663); experiment: HCV protease FRET assay (IC50_APP), wild type NS3/4A 1b; assay type: biochemical
T3 construct: 10× stocks of NS3/4A protease enzyme from Bioenza (Mountain View, Calif.); purchased Bioenza
Outline: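 Wild-type NS3/4A 1b protease with serially diluted compounds (from 50% DMSO stocks); reaction started at once with FRET substrate and followed 60-90 min at ex485/em520. Initial velocities (0 to 15+ min) normalised to no-inhibitor and no-enzyme controls; apparent IC50 from variable-slope log[inhibitor]-response fit.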

Row | Compound | Number of Modifications on Whole Protein (PDPK1 [1]) | pIC50 (PDPK1 [2]) | MS_HCVNS3_INTACT_NS3 WT 1b 1 HR (HCV NS3 protease WT 1b) | pIC50 [3] | other results
1 | C=C[C@@H]1C[C@]1(NC(=O)[C@@H]1CC(Oc2nccc3cc(OC)ccc23)CN1C(=O)[C@H](CC(=O)N1C[C@@H]2C[C@H]1C(=O)O2)NC(=O)OC(C)(C)C)C(=O)NS(=O)(=O)C1CC1 (some centres unmarked) [XVI-7] | – | – | H (>50% and ≤70% modification) | 8.00 to 9.00 | –
2 | C=C[C@@H]1C[C@]1(NC(=O)[C@@H]1CC(Oc2cc(-c3ccccc3)nc3cc(OC)ccc23)CN1C(=O)[C@H](CNC(=O)[C@@H]1CCC(=O)O1)NC(=O)OC(C)(C)C)C(=O)NS(=O)(=O)C1CC1 (stereo partly drawn) [XVI-24, tert-butyl(2S)-1-((2S)-2-((1R,2S)-1-(cyclopropylsulfonylcarbamoyl)-2-vinylcyclopropylcarbamoyl)-4-(7-methoxy-2-phenylquinolin-4-yloxy)pyrrolidin-1-yl)-1-oxo-3-((S)-5-oxotetrahydrofuran-2-carboxamido)propan-2-ylcarbamate] | – | – | K (≤30% modification) | 8.00 to 9.00 | –
3 | C=C[C@@H]1C[C@]1(NC(=O)[C@@H]1CC(OC(=O)N2Cc3cccc(F)c3C2)CN1C(=O)[C@H](CC(=O)N1C[C@@H]2C[C@H]1C(=O)O2)NC(=O)OC(C)(C)C)C(=O)NS(=O)(=O)C1CC1 (stereo partly drawn) [XVI-15, (5S)-1-((S)-2-(tert-butoxycarbonylamino)-4-oxo-4-((1S,4S)-3-oxo-2-oxa-5-azabicyclo[2.2.1]heptan-5-yl)butanoyl)-5-((1R,2S)-1-(cyclopropylsulfonylcarbamoyl)-2-vinylcyclopropylcarbamoyl)pyrrolidin-3-yl 4-fluoroisoindoline-2-carboxylate] | – | – | H (>50% and ≤70% modification) | > 9.00 | –
4 | C=C[C@@H]1C[C@]1(NC(=O)[C@@H]1CC(Oc2nccc3cc(OC)ccc23)CN1C(=O)[C@H](CC(=O)N1C[C@H]2C[C@@H]1C(=O)O2)NC(=O)OC(C)(C)C)C(=O)NS(=O)(=O)C1CC1 (some centres unmarked) [XVI-6] | – | – | H (>50% and ≤70% modification) | 8.00 to 9.00 | –
5 | C=C[C@@H]1C[C@]1(NC(=O)[C@@H]1CC(Oc2nccc3cc(OC)ccc23)CN1C(=O)[C@H](CCC(=O)N1C[C@@H]2C[C@H]1C(=O)O2)NC(=O)OC(C)(C)C)C(=O)NS(=O)(=O)C1CC1 (stereo partly drawn) [XVI-9, tert-butyl(2S)-1-((2S)-2-((1R,2S)-1-(cyclopropylsulfonylcarbamoyl)-2-vinylcyclopropylcarbamoyl)-4-(6-methoxyisoquinolin-1-yloxy)pyrrolidin-1-yl)-1,5-dioxo-5-((1S,4S)-3-oxo-2-oxa-5-azabicyclo[2.2.1]heptan-5-yl)pentan-2-ylcarbamate] | – | – | H (>50% and ≤70% modification) | > 9.00 | –
6 | CC(C)(C(N)=O)C(=O)NCCCNc1nc(Nc2cccc(NC(=O)CNC(=O)C3CSC(=O)C3)c2)ncc1Br (centres unmarked) [XI-26] | 1 | 7.00 to 8.00 | – | – | –
7 | CC(C)(C(N)=O)C(=O)NCCCNc1nc(Nc2cccc(NC(=O)CNC(=O)C3CCC(=O)S3)c2)ncc1Br (centres unmarked) [XI-22] | 2 | > 8.00 | – | – | –

Second part, led by results:

Row | Number of Modifications on Whole Protein (PDPK1 [1]) | pIC50 (PDPK1 [2]) | Compound | MS_HCVNS3_INTACT_NS3 WT 1b 1 HR (HCV NS3 protease WT 1b) | pIC50 [3] | other results
8 | 1 | > 8.00 | CC(C)(C(N)=O)C(=O)NCCCNc1nc(Nc2cccc(NC(=O)C3CSC(=O)C3)c2)ncc1Br (centres unmarked) [XI-27] | – | – | modification of PDPK1 (PDPK1 [1]; 3 hr, 10-fold excess): complete modification; mass shift of PDPK1 (PDPK1 [1]; 3 hr): 568 Da
9 | 1 | 7.00 to 8.00 | C=CC(=O)Nc1ccc(Nc2ncc(Br)c(NCCCNC(=O)C(C)(C)C(N)=O)n2)cc1 [XI-39] | – | – | –
10 | 1 | – | C=CC(=O)Nc1cccc(Nc2ncc(Br)c(NCCCNC(=O)C(C)(C)C(N)=O)n2)c1 [XI-53] | – | – | –
11 | 2 | > 8.00 | CC(C)(C(N)=O)C(=O)NCCCNc1nc(Nc2cccc(NC(=O)C3CCC(=O)S3)c2)ncc1Br (centres unmarked) [XI-21] | – | – | mass shift of PDPK1 as percent (PDPK1 [1]; 3 hr, 10-fold excess): 175%; modification of PDPK1 (PDPK1 [1]; 3 hr, 10-fold excess): complete multiple modification; mass shift of PDPK1 (PDPK1 [1]; 3 hr): 1,009 Da
